This is an account of results in patent US11446319B2, “Composition containing flavonoid-cyclodextrin clathrate compound” (TAIYO KAGAKU CO., LTD., priority 2018, dated 2022).

This data set deals with human dermal fibroblasts. The data set is classed as cell-based. The following applies: 24 h. As to the method: Specifically, human dermal fibroblasts (manufactured by PromoCell) were subcultured in a 24-well plate using a medium for cells in a proportion of 3×10^4 cells/well. […] After 24 hours, the viability of the cells was analyzed.
The viability of the cells was analyzed as follows. The cells were incubated at 37° C. and 5% CO2 for 1 hour in the presence of Neutral Red (pigment) (The live cells incorporating Neutral Red, thereby making the cells distinguishable from dead cells or damaged cells, and quantifiable). Next, 50% ethanol and a solution of 0.05 M NaH2PO4 were added to the cells to thereby extract out the pigment from the cells. Thereafter, the absorbance of the cells was measured with a spectrophotometer at 540 nm, and compared to that of the cells unexposed to the light, and shown as viability (%)=(analytical value at 540 nm of the photo-irradiated cells×100/analytical value at 540 nm of the cells not irradiated with light) in Table 26.
The evaluation was made in the same manner as in Example 231 except that the composition used during the incubation for 24 hours was changed to have the components as listed in Tables 26 to 29.

Turning to `C[C@H](O)[C@H](O)[C@@H](O)[C@@H](O)C=O` [rhamnose], the viability result is “about 5%”.
